Values joined by “and” are separate entries in the source; they are usually repeats but may differ in a detail not shown here. Equal entries are not always repeated. “Also recorded” adds a separate entry of the source.
System: SkM
Assay: Lipidomic profiling of skeletal muscle (quadriceps) of mice on chow or HFD
Format: in vivo
Excerpt: Male C57BL6/J mice were obtained from the Animal Resources Centre in Perth (WA, Australia). […] Treatment was commenced at the same time as mice were randomised to dietary groups. The experiments were approved by the UNSW animal care and ethics committee (ACEC 15/48B), and followed guidelines issued by the National Health and Medical Research Council of Australia.
Lipids were extracted from frozen tissue samples or cells using a two-phase procedure with methyl-tert-butyl ether (MTBE)/methanol/water (10:3:2.5, v/v/v)[67]. Frozen tissue samples (~20 mg) were homogenized in 0.2 mL methanol containing 0.01% butylated hydroxytoluene (BHT), using a Precellys 24 homogenizer and Cryolys cooling unit (Bertin Technologies) with CK14 (1.4-mm ceramic) beads. The homogenates were spiked with an internal standard mixture comprising 5 nmole 19:0/19:0 phosphatidylcholine and 2 nmole each of 17:0/17:0 phosphatidylethanolamine, 17:0/17:0 phosphatidylserine, 17:0/17:0 d5-diacylglycerol, 17:0/17:0 phosphatidylglycerol, 14:0/14:0/14:0/14:0 cardiolipin, 18:1/12:0 SM, 18:1/17:0 ceramide, 18:1/12:0 glucosylceramide, 18:1/12:0 lactosylceramide, 18:1/12:0 sulfatide (all from Avanti Polar Lipids, USA), and 17:0/17:0/17:0 TAG (Cayman Chemical, USA), then transferred to 10 mL screw cap glass tubes. The homogenization tubes containing beads were then washed with another 0.3 mL methanol, and this wash was combined with the first methanol extract, after which 1.7 mL MTBE was added and the samples were sonicated in an ice-cold sonicating water bath (Thermoline Scientific, Australia) for 30 min. Phase separation was induced by addition of 417 µL of mass spectrometry-grade water followed by vortexing and centrifugation at 1000 × g for 10 min. The upper organic phase was collected into 5 mL glass tubes. The lower phase was re-extracted by adding 1 mL MTBE, 300 μL methanol, and 250 μL water. The organic phases were combined in the 5 mL glass tubes and dried under vacuum in a Savant SC210 SpeedVac (Thermo Scientific), then reconstituted in 500 μL methanol and stored at −20 °C until analysis.
Lipidomic profiling was performed on a QExactive Plus mass spectrometer with heated electrospray ionization (HESI) probe and a Dionex UltiMate 2000 LC pump (Thermo Fisher Scientific). Extracts were resolved on a 2.1 × 100 mm Waters Acquity C18 UPLC column (1.7 µm […]), using a binary gradient in which mobile phase A consisted of acetonitrile:water (60:40), 10 mM ammonium formate, 0.1% formic acid; and mobile phase B was isopropanol:acetonitrile (90:10), 10 mM ammonium formate, 0.1% formic acid[68]. The flow rate was 260 µL/min and column oven 55 °C. Data was acquired in full scan/data-dependent MS^2 mode (full scan resolution 70,000 FWHM, scan range 400–1200 m/z). The ten most abundant ions in each cycle were subjected to MS^2 using an isolation window of 1.4 m/z, collision energy 30 eV, resolution 17,500, maximum integration time 110 ms and dynamic exclusion window 10 s. An exclusion list of background ions was used based on a solvent blank. LipidSearch v4.1.30 software (ThermoFisher Scientific) was used for chromatogram alignment, peak identification and integration. Each lipid peak was manually verified for column elution time and characteristic fragment ions. Data were then exported to an Excel spreadsheet for normalisation of each lipid to its class-specific internal standard, and lipid concentrations were calculated relative to the internal standard.
Data were log transformed, then subjected to two-tailed t-tests adjusted for multiple comparisons using GraphPad PRISM (Benjamini, Krieger and Yekutieli correction, Q = 1%).

[1] = Muscle lipidomic data, Chow Vehicle vs Chow P053, Mean1 minus Mean2
[2] = Muscle lipidomic data, Chow Vehicle vs Chow P053, Mean2 = Chow P053 group
[3] = Muscle lipidomic data, HFD Vehicle vs HFD P053, Mean1 minus Mean2
[4] = Muscle lipidomic data, HFD Vehicle vs HFD P053, Mean2 = HFD P053 group

C[C@@](N)(CO)CCc1ccc(OCc2ccc(Cl)c(Cl)c2)cc1 [P053, (S)-2-amino-4-(4-(3,4-dichlorobenzyloxy)phenyl)-2-methylbutan-1-ol]
SM 36:1 content of skeletal muscle (HFD + P053, individual mice): 417.25 and 223.91 and 402.67 and 173.58 and 151.95 and 224.57 and 278.63 and 314.63 and 349.53 and 221.70 and 178.54 and 207.41 and 149.58 and 139.86 and 137.50 and 198.09 and 163.61 and 154.30 and 147.61 | SM 36:2 content of skeletal muscle (HFD + P053, individual mice): 2.88 and 7.47 and 1.66 and 1.87 and 1.75 and 5.22 and 2.66 and 6.56 and 8.38 and 7.06 and 6.58 and 7.04 and 4.61 and 3.90 and 3.95 and 6.89 and 4.71 and 5.16 and 4.33 | SM 38:1 content of skeletal muscle (HFD + P053, individual mice): 11.48 and 13.05 and 11.02 and 10.80 and 17.24 and 10.17 and 15.13 and 9.50 and 12.28 and 0.77 (2×) and 0.82 and 1.11 and 0.80 and 0.71 (2×) and 0.68 and 0.83 and 0.73 | SM 40:1 content of skeletal muscle (HFD + P053, individual mice): 27.34 and 27.26 and 26.32 and 23.00 and 31.62 and 23.79 and 31.23 and 22.04 and 24.26 and 29.13 and 27.02 and 34.08 and 33.01 and 18.95 and 25.13 and 25.49 and 34.47 and 24.05 and 33.50 | SM 40:2 content of skeletal muscle (HFD + P053, individual mice): 1.78 and 2.91 (2×) and 1.98 and 2.11 and 2.83 and 1.89 and 2.53 and 1.77 and 2.29 and 2.59 and 3.38 and 2.49 and 1.96 and 2.67 and 2.64 and 2.84 and 2.34 and 2.94 | SM 42:1 content of skeletal muscle (HFD + P053, individual mice): 15.46 and 16.53 and 18.68 and 19.65 and 22.92 and 14.56 and 23.18 and 14.90 and 18.70 and 19.26 and 17.69 and 25.18 and 22.26 and 12.72 and 19.43 and 19.06 and 23.08 and 18.56 and 31.22 | SM 42:2 content of skeletal muscle (HFD + P053, individual mice): 53.70 and 57.56 and 54.97 and 42.97 and 63.03 and 48.46 and 60.01 and 50.89 and 52.69 and 51.87 and 48.15 and 70.42 and 61.77 and 37.14 and 54.20 and 54.85 and 64.93 and 49.70 and 71.83 | SM 42:3 content of skeletal muscle (HFD + P053, individual mice): 9.08 and 11.26 and 8.06 and 8.54 and 12.73 and 9.01 and 12.20 and 10.73 and 15.91 and 12.10 and 11.91 and 13.64 and 11.55 and 7.81 and 10.86 and 9.89 and 12.79 and 9.17 and 13.47 | reduction of most triacylglycerol (TAG) species in SkM (HFD + P053 compared to HFD + vehicle): more than 50% | Cer(d18:1/18:0)+H, Difference [1]: 0.4848 | Cer(d18:2/18:0)+H, Difference [1]: 0.6042 | Cer(d18:1/18:0)+H, Mean2 [2]: 2.896 | Cer(d18:2/18:0)+H, Mean2 [2]: 0.4179 | Cer(d18:1/18:0)+H, Difference [3]: 0.7206 | Cer(d18:1/22:0)+H, Difference [3]: -0.3135 | Cer(d18:1/24:0)+H, Difference [3]: -0.4027 | Cer(d18:1/24:1)+H, Difference [3]: -0.3555 | Cer(d18:2/18:0)+H, Difference [3]: 0.8901 | SM(d41:1)+H, Difference [3]: -0.3059 | SM(d42:2)+H, Difference [3]: -0.2817 | Cer(d18:1/18:0)+H, Mean2 [4]: 2.811 | Cer(d18:1/22:0)+H, Mean2 [4]: 0.3563 | Cer(d18:1/24:0)+H, Mean2 [4]: 0.4756 | Cer(d18:1/24:1)+H, Mean2 [4]: 1.172 | Cer(d18:2/18:0)+H, Mean2 [4]: 0.1066 | SM(d41:1)+H, Mean2 [4]: 1.941 | SM(d42:2)+H, Mean2 [4]: 3.999 | DG levels in SkM (chow or HFD): does not affect; also recorded: unaffected | SkM TAG levels (normal chow): did not affect | C18 ceramide levels in SkM (pilot study, 7 days, 1 mg/kg/day): no effect | reduction of C18 ceramide levels in SkM (pilot study, 7 days, 5 mg/kg/day): 31%
